This is an account of results in patent US20230212143A9, “PRMT5 INHIBITOR COMPOUNDS” (University of Florida Research Foundation, Incorporated, priority 2019, published 2023).

For orientation: IC50 means the concentration needed to halve the response being measured. Read a high IC50 as weaker potency.

The structures appear in SMILES notation.

One test addresses T1, PRMT5:MEP50 (Homo sapiens, UniProt O14744).
T1 construct: made in house; host or cells: Sf9 insect cells (Bac-to-Bac baculovirus system)
In words: MTase-Glo enzymatic inhibition assay. The test is classed as biochemical. As to conditions: 100 nM PRMT5:MEP50, 10 μM SAM, 2 μM histone H4 (1-21). The source says:
(§1) Protein expression and purification. […] Enzymatic inhibition assay. […] Cancer cell lines. […] Cell proliferation assay. […] Western blot.

Test [1] concerns the target T2, PRMT5 (Homo sapiens, UniProt O14744). In words: AlphaLISA enzymatic inhibition assay. The test is classed as biochemical. On the set-up: made in house; host or cells: Sf9 insect cells (Bac-to-Bac baculovirus system).
From the text: as §1
A general note: In Alpha technology, singlet oxygen from a donor bead excites a nearby acceptor bead.

Test [2] deals with T2, PRMT5. Nature of the test: Cellular Thermal Shift Assay. The test is classed as cell-based. On the set-up: endogenous in cells; host or cells: MDA-MB-231. To be noted: MDA-MB-231 triple negative breast cancer cells.

T1 sequence (O14744 whole entry): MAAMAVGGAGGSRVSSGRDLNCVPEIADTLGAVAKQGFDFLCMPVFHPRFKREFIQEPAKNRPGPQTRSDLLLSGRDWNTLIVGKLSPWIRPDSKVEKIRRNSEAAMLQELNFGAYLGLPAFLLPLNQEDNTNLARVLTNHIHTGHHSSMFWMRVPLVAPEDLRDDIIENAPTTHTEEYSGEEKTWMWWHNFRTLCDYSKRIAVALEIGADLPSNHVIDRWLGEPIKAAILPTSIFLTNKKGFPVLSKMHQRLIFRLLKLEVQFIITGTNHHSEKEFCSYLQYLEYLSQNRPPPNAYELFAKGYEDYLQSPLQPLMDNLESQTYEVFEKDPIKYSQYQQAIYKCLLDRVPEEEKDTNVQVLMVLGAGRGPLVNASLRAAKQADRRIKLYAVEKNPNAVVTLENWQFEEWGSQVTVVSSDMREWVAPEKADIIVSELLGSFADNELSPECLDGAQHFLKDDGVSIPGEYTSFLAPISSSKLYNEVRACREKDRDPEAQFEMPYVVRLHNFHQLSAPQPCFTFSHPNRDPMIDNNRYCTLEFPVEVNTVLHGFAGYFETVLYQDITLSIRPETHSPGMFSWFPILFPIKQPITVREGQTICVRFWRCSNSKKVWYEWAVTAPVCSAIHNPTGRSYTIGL
T1 sequence (Q9BQA1 whole entry partner): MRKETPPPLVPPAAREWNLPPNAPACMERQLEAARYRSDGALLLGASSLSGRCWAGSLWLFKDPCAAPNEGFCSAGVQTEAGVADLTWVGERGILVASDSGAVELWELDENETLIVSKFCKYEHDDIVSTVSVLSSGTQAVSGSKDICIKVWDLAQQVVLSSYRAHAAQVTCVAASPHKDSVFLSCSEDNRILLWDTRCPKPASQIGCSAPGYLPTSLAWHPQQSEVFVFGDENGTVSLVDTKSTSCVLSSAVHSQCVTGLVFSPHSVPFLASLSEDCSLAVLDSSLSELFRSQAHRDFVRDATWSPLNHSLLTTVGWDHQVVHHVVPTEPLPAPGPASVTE
T2 sequence (O14744 whole entry): as the sequence (O14744 whole entry) above
T2 sequence (Q9BQA1 whole entry partner): as the sequence (Q9BQA1 whole entry partner) above

Compound `CCn1c2c(c3cc(C(=O)NCc4ccc5ccc(N)nc5c4)ccc31)CCCC2` [Compound 11-1F] gave an IC50 against PRMT5:MEP50 (11-series) of 1340 nM.
The same measure, in the same setting: the value for `Nc1ccc2ccc(CNC(=O)c3ccc4c(c3)c3c(n4CCO)CCCC3)cc2n1` [Compound 11-2F] was 883 nM.
As to `CCn1c2ccccc2c2cc(CNCc3ccccn3)ccc21` [CMP5], the enzymatic inhibition activity result at PRMT5 [1] is reported as “weak”.
Consider `CCn1c2c(c3cc(C(=O)NCc4ccc5c(N)nc(N)nc5c4)ccc31)CCCC2` [Compound 11-9F], for which, at PRMT5 [2], the “PRMT5 melting temperature increase” value is listed as 1.5 degree Celsius.
Compound `CC(=O)N1CCC(Nc2cc(C(=O)NCc3ccc4ccc(N)nc4c3)ncn2)CC1` [Compound 15-1F] yielded an IC50 against PRMT5:MEP50 (15-series) of 218 nM. This lies in the sub-micromolar range.
Same read-out and setting: next, `CC(=O)N1CCC(Nc2cc(C(=O)NCc3ccc4c(N)nc(N)nc4c3)ncn2)CC1` [Compound 15-2F]: 152 nM.
